Eleven compounds from ChEMBL document CHEMBL1201862, “PubChem BioAssay data set” (2004) can be followed below.

In general, GI50 refers to the concentration that inhibits growth by half.

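Briefly, cells in 96-well plates were exposed to five compound concentrations for 48 h, and endpoints were estimated by linear interpolation. Abbreviation: GI50, concentration required for 50% inhibition of growth.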 The source made the active and inactive calls. No stated cut-off is given here; in the data, active = GI50 up to about 1.1 µM and inactive = higher.

Test systems include A549; RPMI-8226; OVCAR-3; LOX IMVI; NCI-H522; OVCAR-8; NCI-H460; HCC 2998; K562; EKVX; 786-0; TK-10; HOP-62; COLO 205; SK-MEL-28; HT-29; MOLT-4; RXF 393; MDA-MB-435; DU-145.
Common to all, as to assay: DTP human tumour cell line panel, 48 h

Take `O=C(O)[C@H](NS(=O)(=O)c1ccc(F)cc1)c1ccccc1`: the GI50 in the assay with A549, with RPMI-8226, in the assay on OVCAR-3, with LOX IMVI, in the assay on NCI-H522 and in the assay with OVCAR-8 was > 100 µM (inactive) each time. For the same compound, the GI50 in the assay with NCI-H460, in the assay on HCC 2998, with K562, in the assay with EKVX, in the assay on 786-0 and with TK-10 was > 100 µM (inactive) each time. The GI50 in the assay on HOP-62, in the assay with COLO 205, in the assay with SK-MEL-28, in the assay on HT-29, in the assay with MOLT-4 and with RXF 393 was > 100 µM (inactive) each time.

With `Cc1cc(N(CCC#N)CCC#N)ccc1/C(Sc1ccccc1)=C(\NC(=O)/C=C/c1ccccc1)C(=O)Sc1ccccc1`, the GI50 with A549 was 2.02 µM (inactive); with RPMI-8226, 0.991 µM (active); in the assay on OVCAR-3, 2.92 µM (inactive); in the assay on LOX IMVI, 0.83 µM (active); in the assay with NCI-H522, 0.587 µM (active); in the assay on OVCAR-8 it was 2.94 µM (inactive). For the same compound, the GI50 is 7.01 µM (inactive) in the assay with NCI-H460; 11.4 µM (inactive) in the assay with HCC 2998; 2.41 µM (inactive) with K562; 6.18 µM (inactive) with EKVX; 2.28 µM (inactive) in the assay on 786-0; 5.35 µM (inactive) with TK-10. For the same compound, the GI50 with HOP-62 was 2.56 µM (inactive); in the assay with COLO 205, 2.55 µM (inactive); in the assay on SK-MEL-28 it was 4.99 µM (inactive); in the assay with HT-29, 2.91 µM (inactive); with MOLT-4, 0.557 µM (active); in the assay with RXF 393, 1.56 µM (inactive).

Consider `Cc1nc2c(=O)n(-c3ccccc3)c(=O)n(-c3ccccc3)c2o1`, for which the GI50 in the assay on A549, in the assay on RPMI-8226, in the assay with OVCAR-3, in the assay on MDA-MB-435, with LOX IMVI and in the assay with NCI-H522 was > 100 µM (inactive) in each case. Also, the GI50 with OVCAR-8, with NCI-H460, in the assay with HCC 2998, in the assay with K562, in the assay with EKVX and in the assay on 786-0 was > 100 µM (inactive) throughout. Besides, the GI50 is 58.3 µM (inactive) in the assay with TK-10; > 100 µM (inactive) in the assay with HOP-62; > 100 µM (inactive) in the assay with COLO 205; > 100 µM (inactive) in the assay with HT-29; > 100 µM (inactive) in the assay on MOLT-4; > 100 µM (inactive) in the assay with RXF 393.

For `CC12CC(=O)NN=C1c1ccccc1C2` (stereo not drawn), the GI50 in the assay with A549, in the assay with RPMI-8226, in the assay with OVCAR-3, in the assay on LOX IMVI, with NCI-H522 and in the assay on OVCAR-8 was > 100 µM (inactive) each time. Also, the GI50 with NCI-H460 was > 100 µM (inactive); with HCC 2998, > 100 µM (inactive); in the assay on K562, > 100 µM (inactive); with EKVX, 98.2 µM (inactive); in the assay on 786-0, > 100 µM (inactive); with TK-10, > 100 µM (inactive). Besides, the GI50 in the assay with HOP-62, in the assay on COLO 205, in the assay on SK-MEL-28, in the assay on HT-29, with MOLT-4 and with RXF 393 was > 100 µM (inactive) each time.

Turning to `COc1ccc([N+]2=NC(c3ccc([N+](=O)[O-])cc3)=NN(c3ccccc3)C2)cc1`, the GI50 was 71 µM (inactive) in the assay with A549; 24.7 µM (inactive) in the assay on RPMI-8226; 42.5 µM (inactive) with OVCAR-3; 30.1 µM (inactive) with LOX IMVI; 2.69 µM (inactive) with NCI-H522; > 10 µM (inactive) with OVCAR-8. For the same compound, the GI50 was 25.9 µM (inactive) with NCI-H460; > 100 µM (inactive) with HCC 2998; 21 µM (inactive) in the assay with K562; 44.4 µM (inactive) in the assay with EKVX; > 100 µM (inactive) in the assay with 786-0; > 100 µM (inactive) with TK-10. The GI50 with HOP-62 was > 100 µM (inactive); in the assay on COLO 205, 68.2 µM (inactive); in the assay on SK-MEL-28 it was 70.8 µM (inactive); in the assay with HT-29 it was 34 µM (inactive); with MOLT-4, 21.6 µM (inactive); in the assay on RXF 393 it was > 100 µM (inactive).

Take `COc1ccc(CCCNC(=O)Cc2ccccc2CO)cc1OC`: the GI50 in the assay with A549, in the assay with OVCAR-3, with MDA-MB-435, with LOX IMVI, with OVCAR-8 and in the assay on NCI-H460 was > 100 µM (inactive) throughout. For the same compound, the GI50 in the assay on HCC 2998, in the assay with K562, with EKVX, in the assay on 786-0, in the assay on TK-10 and in the assay on HOP-62 was > 100 µM (inactive) throughout. Besides, the GI50 in the assay on COLO 205, with SK-MEL-28, in the assay on HT-29, in the assay with DU-145 and in the assay on MOLT-4 was > 100 µM (inactive) in each case.

On to `[N-]=[N+]=Nc1c(N2CCOCC2)c(Cl)nc2ccccc12`, for which the GI50 is 51.2 µM (inactive) in the assay on A549; 74 µM (inactive) in the assay on RPMI-8226; 43.5 µM (inactive) with OVCAR-3; 42.5 µM (inactive) in the assay on MDA-MB-435; 46.6 µM (inactive) in the assay on LOX IMVI; 29.7 µM (inactive) in the assay with NCI-H522. Also, the GI50 in the assay on OVCAR-8 was 35.2 µM (inactive); with NCI-H460, 28.8 µM (inactive); in the assay with HCC 2998, 92.7 µM (inactive); in the assay with K562 it was 37.6 µM (inactive); in the assay on EKVX, 9.55 µM (inactive); with 786-0, 86.7 µM (inactive). The GI50 with TK-10 is 61.2 µM (inactive); in the assay on HOP-62 it was 58.6 µM (inactive); with COLO 205, 33.5 µM (inactive); in the assay on SK-MEL-28, 59.8 µM (inactive); in the assay with HT-29, 27.2 µM (inactive); with MOLT-4, 65.2 µM (inactive). For the same compound, the GI50 in the assay on RXF 393 is 64.6 µM (inactive).

`CCOC(=O)Cn1c(=O)[nH]c(=O)c2c1ncn2Cc1ccccc1`: the GI50 in the assay on A549, in the assay on RPMI-8226, with OVCAR-3, in the assay with LOX IMVI, with NCI-H522 and in the assay with OVCAR-8 was > 100 µM (inactive) each time. Moreover, the GI50 in the assay with NCI-H460, in the assay with HCC 2998, with K562, with EKVX, in the assay with 786-0 and in the assay on TK-10 was > 100 µM (inactive) in each case. The GI50 in the assay on HOP-62, in the assay with COLO 205, in the assay with SK-MEL-28, with HT-29, in the assay on MOLT-4 and in the assay with RXF 393 was > 100 µM (inactive) throughout.

With `CC(=O)Nc1[nH]n(C)c(=O)c1-c1nnc(C)s1`, the GI50 in the assay with A549, with RPMI-8226, with OVCAR-3, in the assay on LOX IMVI, with NCI-H522 and with OVCAR-8 was > 100 µM (inactive) each time. Further, the GI50 in the assay on NCI-H460, in the assay on HCC 2998, with K562, in the assay on EKVX, in the assay on 786-0 and in the assay with TK-10 was > 100 µM (inactive) in each case. Moreover, the GI50 in the assay with HOP-62, with COLO 205, with SK-MEL-28, in the assay with HT-29, with MOLT-4 and in the assay with RXF 393 was > 100 µM (inactive) throughout.

For `CNC(=O)OCc1nc([S+](C)[O-])n(C)c1COC(=O)NC` (stereo not drawn), the GI50 was > 46.5 µM (inactive) with A549; > 100 µM (inactive) in the assay with RPMI-8226; > 100 µM (inactive) in the assay on OVCAR-3; > 100 µM (inactive) in the assay on LOX IMVI; > 100 µM (inactive) in the assay with NCI-H522; > 100 µM (inactive) in the assay with OVCAR-8. Further, the GI50 in the assay with NCI-H460, with HCC 2998, with K562, with EKVX, in the assay with 786-0 and in the assay with TK-10 was > 100 µM (inactive) throughout. The GI50 in the assay on HOP-62 is > 100 µM (inactive); in the assay with COLO 205, > 41.8 µM (inactive); in the assay with SK-MEL-28, > 100 µM (inactive); in the assay with HT-29 it was > 100 µM (inactive); with MOLT-4, > 100 µM (inactive); in the assay with RXF 393 it was > 100 µM (inactive).

Consider `CCCN(CCC)C(=O)Cc1c2n(c3ccccc13)Cc1ccccc1-2`, for which the GI50 is 27.9 µM (inactive) in the assay on A549; 59 µM (inactive) in the assay with RPMI-8226; > 100 µM (inactive) in the assay on OVCAR-3; 83.4 µM (inactive) in the assay with LOX IMVI; 40 µM (inactive) in the assay on NCI-H522; > 100 µM (inactive) in the assay on OVCAR-8. Also, the GI50 in the assay with NCI-H460 was 63.7 µM (inactive); with HCC 2998, > 100 µM (inactive); in the assay with K562, > 100 µM (inactive); with EKVX, > 100 µM (inactive); with 786-0 it was 57 µM (inactive); with TK-10 it was > 100 µM (inactive). In addition, the GI50 in the assay with HOP-62 is > 100 µM (inactive); with COLO 205, 95.3 µM (inactive); with SK-MEL-28, > 100 µM (inactive); in the assay with HT-29, 61.8 µM (inactive); with MOLT-4, > 100 µM (inactive); in the assay with RXF 393, 24.4 µM (inactive).
